Measurements from patent US20090209620A1, “Direct Reversal Of The Suppressive Function Of CD4+Regulatory T Cells Via Toll-Like Receptor 8 Signaling” (priority 2005, published 2009).
“Also recorded” adds a separate entry of the source. In the oligonucleotide strings, read from the 5' end, every base follows the letter of its sugar. An asterisk marks phosphorothioate; unmarked linkages are phosphodiester. Other units and linkages are bracketed, terminal groups are in braces. A string of capitals states the bases alone. d = 2'-deoxy (DNA)

Legend:
[1] = test system: CD4+ Treg cells (Treg102, Treg164); assay: Proliferation assay without DCs: Treg suppression of naive CD4+ T cell proliferation, anti-CD3-coated plates; format: cell-based, human; settings: absence of DCs; anti-CD3-coated plates; oligonucleotides 3 ug/ml in medium
Excerpt: (§1) Establishing Treg cell lines and purifying natural CD4^+ CD25^+ Treg cells CD4^+ Treg clones were established from CD4^+ tumor-infiltrating lymphocytes (TIL102 and TIL164) and maintained in RPMI 1640 medium containing 10% human AB serum and recombinant IL-2 (300 IU/ml) using methods well known in the art (See, e.g., H. Y. Wang et al., Immunity 20, 107-118 (2004)). Treg clones derived from TIL102 or TIL164 cells were pooled and designated Treg102 or Treg164. Naturally occurring CD4^+ CD25^+ Treg cells were obtained by sorting CD4^+ T cell populations from fresh PBMCs after staining with anti-CD4 and anti-CD25 antibodies. To obtain optimal expansion, the OKT3 expansion method was performed using methods well known in the art (See, e.g., H. Y. Wang et al., Immunity 20, 107-118 (2004)). T cell clones were maintained at a low IL-2 concentration (300 IU/ml). Melanoma cell lines and EBV-transformed B-cell lines used in this study were cultured in RPMI 1640 medium containing 10% FCS. Human embryonic kidney (HEK) 293 and Epstein-Barr virus (EBV)-transformed B cell lines were maintained in RPMI 1640 with 10% fetal calf serum (FCS).
B. Proliferation assay without DCs: 1×10^5 näive CD4 T cells were cultured with regulatory T cells at different ratios (1: 0.2, 1:0.1 and 1:0.05) in anti-CD3 mAb-coated (2 ug/ml) 96-well plates in the presence or absence of the following TLR ligands or cytokines: CpG-A (3 ug/ml), CpG-B (3 ug/ml), LPS (100 ng/ml), TNF.-α (20 ng/ml), IFN-α (100 ng/ml), or IL-6 (100 ng/ml). After 56 h of culture, [3H]thymidine was added at a final concentration of 1 uCi/well, followed by an additional 16 h of culture. The incorporation of [^3H]thymidine was measured with a liquid scintillation counter.
Näive CD4^+ T cell proliferation experiments were performed similar to those in FIG. 1A, but in the absence of DCs. […] The reversal effect of CpG-A (SEQ ID NO: 1) contrasts with the failure of CpG-B (SEQ ID NO: 2), LPS, TNF-α, IL-6 or IFN-α to block the suppressive activity of CD4^+ Treg cells against naive CD4^+ T cells (FIG. 1B).
To further define the CpG-A (SEQ ID NO: 1) sequences responsible for the observed reversal effect, CpG-NG (SEQ ID NO: 5) and Poly-G10 (SEQ ID NO: 6), were tested for their ability to reverse the suppressive function of Treg cells. Naive CD4^+ T cells were mixed with CD4^+ Treg cells in anti-CD3 antibody-coated 96-wells with 200 μl of medium containing CpG-NG (SEQ ID NO: 5), CpG-A (SEQ ID NO: 1) or Poly-G10 (SEQ ID NO: 6). The proliferation assay was conducted as described in FIG. 1. […] For the experiments shown in FIG. 2B, naive CD4^+ T cells were mixed with CD4^+ Treg cells in anti-CD3 antibody-coated 96-wells with 200 μl of medium containing Poly-A10 (SEQ ID NO: 7), Poly-T10 (SEQ ID NO: 9) or Poly-C10 (SEQ ID NO: 8), while the Poly-G10 (SEQ ID NO: 6) oligonucleotides served as a positive control.
A series of oligonucleotides with decreasing numbers of guanosine nucleosides was constructed to determine the minimal number required for the reversal effect. For the experiments in FIG. 2C, CD4^+ T cells were mixed with CD4^+ Treg cells in anti-CD3 antibody-coated 96-wells containing medium with protected phosphorothioate linked guanosine nucleoside containing oligonucleotides of various lengths, while the unprotected five guanosines (SEQ ID NO: 10) served as a control.

586mel human tumor cells = assay: Human 586mel tumor model in Rag1-/- mice with adoptive transfer of TIL586 and Treg102 cells; format: in vivo; settings: 586mel s.c. day 0; CD8+ TIL586 plus Treg102 cells with oligonucleotide on day 3; n=6 mice per group
Description: Human 586mel tumor cells (5×106) in 100 μl of buffered saline were subcutaneously injected into Rag1^−/− mice (lacking T and B cells) or Rag 2 ^−/− γC ^−/− mice (lacking T, B and NK cells) on day 0. Tumor-specific CD8^+ TIL586 cells (2.5×107), which recognize and kill 586mel cells, were injected intravenously on day 3 with or without Treg102 cells (3×106) pretreated with Poly-G10 or Poly-T10. Tumor size was measured with calipers every 2-3 days. Tumor volume was calculated on the basis of two-dimensioned measurements. Tumor growth curves were compared with the Wilcoxon rank-sum test.
The data in FIG. 4A-B confirms that TLR8 serves as a receptor for synthetic guanosine containing oligonucleotides and natural ssRNA40 and ssRNA33 ligands derived from HIV-1 virus, and that its activation in endosomes by synthetic DNA or ssRNA ligands triggers a signaling pathway that can reverse the suppressive function of Treg cells. To study the guanosine containing oligonucleotide induced reversal of Treg cell function in vivo, a human tumor model was established by subcutaneously injecting 586mel human tumor cells into Rag1^−/− (T and B cell deficient) mice. […] Tumor volumes were measured and presented as mean±SD (n=6 mice per group). P value was determined between groups as indicated. […]

[2] = test system: CD4+ Treg cells (Treg102, Treg164); assay: Proliferation assay with dendritic cells: Treg suppression of naive CD4+ T cell proliferation ([3H]thymidine); format: cell-based, human; settings: with DCs; LPS 100 ng/ml, IL-6 100 ng/ml, IFN-α 100 ng/ml
Excerpt: as §1
A. Proliferation assay with Dendritic Cells (DCs): Näive CD4^+ T cells were purified from PBMCs using microbeads (Miltenvi Biotec). DCs were generated from PBMC-derived monocytes in the presence of IL-4 (500 ng/ml) and GM-CSF (800 ng/ml) for 7 days. 1×105 näive CD4^+ T cells were cultured with regulatory T cells at different ratios (1: 0.2, 1:0.1 and 1:0.05) in 200 ul of medium containing 2×104 of DCs and anti-CD3 antibody (100 ng/ml) plus one of the following TLR ligands or cytokines: CpG-A (3 ug/ml), CpG-B (3 ug/ml), LPS (100 ng/ml), TNF.-α (20 ng/ml), IFN-α (100 ng/ml), or IL-6 (100 ng/ml). After 56 h of culture, [3H]thymidine was added at a final concentration of 1 uCi/well, followed by an additional 16 h. of culture. The incorporation of [^3H]thymidine was measured with a liquid scintillation counter, using methods well known in the art (See, e.g., M. K. Levings et al., J. Exp. Med. 196, 1335-46 (2002)). All experiments were performed in triplicate.
Two CD4^+ Treg cell lines, designated Treg102 and Treg164, were generated with a panel of Treg cell clones derived from TIL102 and TIL164 cells. […] A functional proliferation assay was employed to examine whether CpG (a TLR9 ligand), LPS (a TLR4 ligand) or the cytokines IL-6 or IFN-α could regulate the suppressive activity of antigen specific human CD4^+ Treg cells in the presence of DCs. […]

[3] = test system: naturally occurring CD4+ CD25+ Treg cells; assay: Reversal of suppressive function of naturally occurring CD4+CD25+ Treg cells (proliferation assay); format: cell-based; settings: sorted from fresh human PBMCs; anti-CD3-coated wells
Excerpt: as §1, with “Melanoma cell lines and EBV-transformed B-cell lines used in this study were cultured in RPMI 1640 medium containing 10% FCS. Human embryonic kidney (HEK) 293 and Epstein-Barr virus (EBV)-transformed B cell lines were maintained in RPMI 1640 with 10% fetal calf serum (FCS).” left out
The expression of CD4, CD25 and GITR on Treg cells was determined by FACS analysis after staining with specific antibodies (purchased from R&D Systems and BD Biosciences). […] After 3 days in culture, the cells were analyzed by FACS gating on the CFSE-labeled cells. […]
FIG. 2E: Both CD4^+ CD25^+ and CD25^− T cells were sorted after staining of freshly isolated human CD4^+ T cells with anti-CD4 and anti-CD25 antibodies. The purity of the sorted T cells was determined by FACS. […]

[4] = test system: antigen-specific Treg102 and Treg164 cells; assay: TLR ligand assays: reversal of Treg suppression of naive CD4+ T cell proliferation; format: cell-based, human
Description: Näive CD4 T+cells were purified from PBMCs by using microbeads (Miltenvi Biotec). Näive CD4^+ T cells ([…]) were cultured with regulatory T cells at a ratio of 10:1 in OKT3 (2 ug/ml)-coated, U bottomed 96-well plates containing the following ligands: LPS (100 ng/ml), imiquimod (10 μg/ml), loxoribine (500 μM), poly(I:C) (25 μg/ml), ssRNA40/LyoVec (3 μg/ml), ssRNA33/LyoVec (3 μg/ml), pam3CSK4 (200 ng/ml) and flagellin (10 μg/ml) were purchased from Invivogene (San Diego, Calif.), while CpG-A (3 μg/ml), CpG-B (3 μg/ml) and Poly-G oligonucleotides (3 μg/ml) were synthesized in Integrated DNA Technologies, Inc (Coralville, Iowa). Functional assays were identical to those described above.
If the TLR8-MyD88-IRAK4 signaling pathway is necessary and sufficient for direct reversal of the suppressive function of Treg cells, it should be possible to produce that effect with natural ligands for human TLR8. For FIG. 4A-B, naive CD4^+ T cells were mixed with Treg102, Treg164 or naturally occurring CD4^+ CD25^+ Treg cells in anti-CD3 antibody-coated wells in the presence of different TLR ligands. Data are presented as means±SD and represent results from three independent experiments.

Molecule	reversal of Treg cell-mediated suppression of naive CD4+ T cell proliferation [1]	restoration of proliferative ability of naive CD4+ T cells in the presence of CD4+ Treg cells [2]	reversal of suppressive function of naturally occurring CD4+CD25+ Treg cells [3]	also measured
Poly-T10: control oligonucleotide with protected phosphorothioate backbone (DNA TTTTTTTTTT)	failed to reverse the suppressive function of Treg cells; also recorded: lacked the ability to reverse the suppressive activity of Treg cells	–	–	tumor growth / antitumor immunity (586mel human tumor cells): grew faster than in mice receiving 586mel cells alone
IL-6: cytokine	failure	did not restore the proliferative ability	–	–
CC(C)Cn1cnc2c(N)nc3ccccc3c21 [Imiquimod]	–	–	little or no effect	reversal of suppressive function of antigen-specific Treg cells ([4]; Treg102 and Treg164, naive T:Treg 10:1, OKT3-coated plates): partial reversal
lipopolysaccharide [LPS]	failure	did not restore the proliferative ability	–	restoration of proliferation of naive CD4+ T cells in the presence of Treg cells ([4]; Treg102, Treg164 or naturally occurring CD4+CD25+ Treg cells (FIG. 4A-B)): failed to restore the proliferation of naive CD4^+ T cells
Poly-G5: Poly-G oligonucleotide with phosphorothioate linkages (DNA dG*dG*dG*dG*dG)	–	–	Reversal of suppressive function; also recorded: entirely reversed; also recorded: could be reversed	–
IFN-α	failure	did not restore the proliferative ability	–	–
